Assays:
BR5010 xenografts = assay: TNBC patient-derived xenograft BR5010, tumor volume; type: in vivo, mouse; conditions: 40 mg/kg or 30 mg/kg i.v. BIW
Protocol: (§1) Patient-derived xenograft (PDX) models from TNBC patients (BR5010, BR5013, BR5015, and BR5023) were established in NOD-SCID mice at Crown Bioscience (San Diego, USA). Cryo vials containing tumor cells were thawed and prepared for injection into mice. Cells were washed in PBS, counted, and resuspended in cold PBS at a concentration of 50,000-100,000 viable cells/100 ul. Cell suspensions were mixed with an equal volume of Cultrex ECM and kept on ice during transport to the vivarium. Cells were prepared for injections by withdrawing ECM-Cell mixture into a chilled slip-tip syringe fitted with a 26G 7/8 (0.5 mm×22 mm) needle. The filled syringes were kept on ice to avoid the solidification of ECM. Each mouse was inoculated subcutaneously in the right flank with 200 uL of the cell suspension. Tumor sizes were measured in two dimensions using a caliper, and the volumes were expressed in mm^3 using the formula: V=0.5 a×b^2, where a and b are the longest and shortest diameters of the tumor, respectively. Compound 1 treatment was started when the average tumor size reached 150-200 mm^3.
(§2) Compound 1 was formulated in w/v 20% Captisol (pH 4-6) and administered by i.v. twice weekly (BIW) at a final dose of 40 mg/kg or 30 mg/kg in a 10 ml/kg volume. Tumor volumes were measured twice weekly over the course of the study. […]

[1] = tested on: MCL1 protein in HCC70 cells; assay: Western blot of BCL2 family proteins, HCC70; type: cell-based, human; conditions: 50 nM or 100 nM, 24 hours
Protocol: Cytotoxic cancer cell lines HCC70 and TOV21G, and cytostatic cancer cell lines T47D and COV318 were seeded in wells of a six-well dish at a density of 1×10^6 cells/well and allowed to adhere overnight. Cells were then treated with 50 nM of Compound 1 for 16 or 24 hours, or with DMSO (0 hours) representing a negative control. Cells were harvested and placed on ice, and resuspended in RIPA lysis buffer supplemented with protease and phosphatase inhibitors. Clarified lysates prepared with 4×LSD running buffer and boiled at 95° C. for 5 minutes. Equivalent amounts of sample (10 μg total protein) were run on a 4-12% Bis-Tris gel and transferred to a PDVF membrane for Western blotting using standard Western blotting protocols. Membranes were blocked with Licor TBS blocking buffer then probed with antibodies for BCL-XL, BCL-2, MCL1, BID, and GAPDH visualized using and Odyssey imager (FIGS. 23A and 23D).
In a similar experiment, TNBC breast cancer cell lines HCC70, MDAMB468, MDAMB453 and CAL-120 were grown as described above and treated with DMSO, 50 nM Compound 1 or 100 nM Compound 1 for 24 hours. Protein samples were prepared as described above for Western blotting using antibodies specific for the indicated proteins in FIG. 29A. […]

BR5023 xenografts = assay: TNBC patient-derived xenograft BR5023, tumor volume; type: in vivo, mouse; conditions: 40 mg/kg or 30 mg/kg i.v. BIW
Protocol: as §1, §2

[2] = tested on: homologous recombination deficiency / carboplatin sensitivity genes in A2780 cells; assay: Nanostring PanCancer Pathways mRNA, A2780; type: cell-based; conditions: 50 nM, 16 hours
Protocol: Ovarian Cell lines OvCar3, TOV21G, A2780 and COV318 were plated at 500,000 cells/well in a 6-well plate the day before treatment. The next day the cells were treated with vehicle or 50 nM Compound 1 for 0, 6, or 16 hours after which cells were harvested and total RNA collected using RNeasy mini kit (Qiagen). Changes in mRNA between samples were analyzed with Nanostring™ PanCancer Pathways Panels specifically analyzing genes related to homologous recombination deficiency and carboplatin sensitivity (ie. BRCA1, BRCA2, Rad51, ATM, ATR, MSH2, MSH6). Nanostring signal intensities were first normalized to housekeeping genes across all cell lines, and then normalized to the 0 hour timepoint within a cell line.

OV14702 xenograft = assay: Ovarian PDX OV14702, tumor volume; type: in vivo, mouse; conditions: OV14702 (RB1 null); 40 or 30 mg/kg i.v. BIW
Protocol: as §1, with “from ovarian carcinoma” for “from TNBC”, “patients (OV5387, OV14702, OV14972, OV15398, OV15576, OV15696, OV15612, OV15631)” for “patients (BR5010, BR5013, BR5015, and BR5023)”, “in mm3” for “in mm^3”, “V=0.5 a×b^2” for “V=0.5 a×b^2,”
as §2

HR^+ breast cancer cells = assay: Inhibition of HR^+ breast cancer cells in vitro (data not shown); type: cell-based; conditions: including cells with acquired resistance to aromatase inhibitors and cells no longer responding to CDK4/6 inhibitors

SMILES: CN(C)C/C=C/C(=O)Nc1ccc(C(=O)N[C@@]2(C)CCC[C@@H](Nc3ncc(Cl)c(-c4c[nH]c5ccccc45)n3)C2)nc1 [Compound 1, N-((1S,3R)-3-(5-chloro-4-(1H-indol-3-yl)pyrimidin-2-ylamino)-1-methylcyclohexyl)-5-((E)-4-(dimethylamino)but-2-enamido)picolinamide]
- Tumor growth vs untreated historical samples (BR5010 xenografts): consistently inhibited tumor growth
- MCL1 protein level (Western blot) [1]: downregulated
- Tumor growth vs untreated historical samples (BR5023 xenografts): little inhibitory effect on tumor growth
- mRNA of genes related to homologous recombination deficiency and carboplatin sensitivity, all genes except Rad51 (BRCA1, BRCA2, ATM, ATR, MSH2, MSH6) [2]: downregulated
- Response to treatment (tumor growth) (OV14702 xenograft): responded
- Inhibition of HR^+ breast cancer cells in vitro (HR^+ breast cancer cells): inhibits many HR^+ breast cancer cells in vitro

Source: patent publication US20200113902A1, “COMPOSITIONS AND METHODS FOR TREATING CANCERS WITH COVALENT INHIBITORS OF CYCLIN-DEPENDENT KINASE 7 (CDK7)” (Syros Pharmaceuticals, Inc., priority 2017, published 2020)
